Results reported in patent publication US10111880B2, “Compounds for the treatment of diabetes and disease complications arising from same” (BEN-GURION UNIVERSITY OF THE NEGEV RESEARCH AND DEVELOPMENT …, priority 2013, dated 2018).
Entries after “also recorded” stand apart in the source; their conditions may differ.

How the values were obtained:
[1] = tested on: STZ-induced diabetic ICR mice; assay: Glucose tolerance test in STZ mice after short course (2 weeks) AGS treatment; type: in vivo, mouse
Protocol: (§1) Eight weeks-old female ICR mice were injected intraperitoneally (IP) with Streptozotocin (STZ), at a dose of 40 mg/Kg, for 5 consecutive days. The following day and onward, mice were administered the AGS compounds (499 or 500, as indicated), at a dose of 6 mg/Kg, either subcutaneously or orally, every other day. Blood glucose levels were monitored daily.
(§2) After the establishment of diabetes (i.e. three consecutive blood glucose measurements of >200 mg/dL), mouse groups were further sub-divided into 2 sub-groups, one of each received insulin (gradual administration of 0.5-6 units/Kg, over a period of 2 weeks) subcutaneously, every other day. Blood glucose levels were monitored daily.
Glucose tolerance tests were also performed as follows: After two weeks mice were fasted for 12 hours, then injected with D-glucose (1.5 g/Kg, IP) and blood glucose levels were examined at 0, 10, 20, 30, 60, 90 and 120 minutes, in order to evaluate pancreatic function.

[2] = tested on: islets isolated from ICR mice; assay: γ-H2AX staining in isolated islet cells treated with STZ; type: cell-based, mouse; conditions: STZ 1.5 mM; AGS-500 50 nM, 100 nM, 250 nM; 4 hours
Protocol: Islets were isolated from 8-10-week-old ICR mice. 30 islets in each group were treated with STZ (1.5 mM) and DMSO or AGS-500 in various concentrations (50 nM, 100 nM, 250 nM) for 4 hours. After 4 h incubation, the islets were enzymatically separated to single cells, cyto-spun and stained with γ-H2AX-specific antibody (A; representative picture—γ-H2AX (light grey), Dapi (dark grey)). Magnification: ×60.
The treatment of rats with AGS-compounds maintained a large β-cell mass in STZ-treated rats. In order to determine whether β-cell mass preservation was a result islet cell protection from STZ-induced DNA damage, γ-H2AX staining was assessed. Phosphorylated gamma H2AX (γ-H2AX) is essential for recognition and repair of DNA double strand breaks. H2AX histone becomes rapidly phosphorylated at its carboxyl terminus to form the so-called γ-H2AX at double strand break sites.
Islets were isolated from 8-10-week-old ICR mice and were treated with STZ (1.5 mM) and DMSO or AGS-500 in various concentrations (50 nM, 100 nM, 250 nM) for 4 hours. After a 4 h incubation, the islets were separated into single cells, cyto-spun, and stained with anti-γ-H2AX-specific antibody for the detection of DNA double strand breaks (FIG. 6).

[3] = tested on: STZ-induced diabetic ICR mice; assay: Blood glucose over time in STZ mice, short course (2 weeks) AGS treatment with or without insulin; type: in vivo, mouse
Protocol: as §1, §2

Compound: CC(c1cc(Br)c(O)c(Br)c1)(c1cc(Br)c(O)c(Br)c1)c1cc(Br)c(O)c(Br)c1 [AGS-500, 1,1,1-tris (4-hydroxy-3,5-dibromo-phenyl)-ethane]
- mean blood glucose levels in a glucose tolerance test ([1]; 6 mg/Kg subcutaneously or orally every other day, FIG. 11): reduced mean blood glucose levels
- effect of adding insulin on circulating glucose levels in a glucose tolerance test ([1]; AGS subcutaneously (AGS500 also orally), FIG. 12): adding insulin did not appreciably lower the circulating levels
- number of γ-H2AX-stained cells [2]: dose-dependent decrease in the number of γ-H2AX-stained cells; also recorded: Reduced γ-H2AX Staining
- circulating glucose levels over time ([3]; 6 mg/Kg every other day, short course (2 weeks), FIG. 13-1): lowering circulating glucose levels significantly
- circulating glucose levels over time, combined with insulin therapy ([3]; short course, insulin 0.5-6 units/Kg, FIG. 13-2): synergistic contribution
